Literature values as cited in patent US11737471B2, “Products having high efficacy omega-6/omega-3 balanced polyunsaturated fatty acids” (OMEGA FOODS, LLC, priority 2011, dated 2023).

Conditions: by some estimates

Compound: CC/C=C\C/C=C\C/C=C\CCCCCCCC(=O)O [ALA, alpha-linolenic acid]
- conversion of ALA to DHA and EPA by the human body: less than 1%
